According to the supplement of paper PMC10307832:

Tests used:
Experiment in all cases: relative viability (nuclei count vs DMSO), 5 days (fraction); higher = more cells survive
AZ3146 + Dasatinib = compound: CN1CCC(CC1)OC2=CC(=C(C=C2)NC3=NC=C4C(=N3)N(C(=O)N4C)C5CCCC5)OC [AZ3146] + Cc1nc(Nc2ncc(C(=O)Nc3c(C)cccc3Cl)s2)cc(N2CCN(CCO)CC2)n1 [Dasatinib] (partner 0.075 µM)
In short: (§1)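 Lung cancer cell lines in 1536-well plates were dosed by pin tool the day after seeding, either with one drug alone or with a fixed anchor-drug dose plus five library-drug doses (not always all listed) in √10 steps. After 5 days, cells were fixed and their nuclei stained in one step (final 0.05% Triton X-100, 1% formaldehyde, 1 ug/ml Hoechst), then counted on 4× images. Relative viability is the nuclei count in treated wells divided by that in vehicle wells. Values are medians of duplicate plates.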

GSK-J4 + Navitoclax = compound: CCOC(=O)CCNc1cc(N2CCc3ccccc3CC2)nc(-c2ccccn2)n1 [GSK-J4] + CC1(C)CCC(c2ccc(Cl)cc2)=C(CN2CCN(c3ccc(C(=O)NS(=O)(=O)c4ccc(N[C@H](CCN5CCOCC5)CSc5ccccc5)c(S(=O)(=O)C(F)(F)F)c4)cc3)CC2)C1 [Navitoclax] (partner 0.5 µM)
In short: as §1

GSK-J4 + Lapatinib = compound: CCOC(=O)CCNc1cc(N2CCc3ccccc3CC2)nc(-c2ccccn2)n1 [GSK-J4] + CS(=O)(=O)CCNCc1ccc(-c2ccc3ncnc(Nc4ccc(OCc5cccc(F)c5)c(Cl)c4)c3c2)o1 [Lapatinib] (partner 2 µM)
In short: as §1

AZ3146 + Luminespib = compound: CN1CCC(CC1)OC2=CC(=C(C=C2)NC3=NC=C4C(=N3)N(C(=O)N4C)C5CCCC5)OC [AZ3146] + CCNC(=O)c1noc(-c2cc(C(C)C)c(O)cc2O)c1-c1ccc(CN2CCOCC2)cc1 [Luminespib] (partner 0.01 µM)
In short: as §1

| Cell Line | relative viability (AZ3146 + Dasatinib; first compound 0.08 µM) | relative viability (AZ3146 + Dasatinib; first compound 0.253 µM) | relative viability (AZ3146 + Dasatinib; first compound 0.8 µM) | relative viability (AZ3146 + Dasatinib; first compound 2.53 µM) | relative viability (AZ3146 + Dasatinib; first compound 8 µM) | relative viability (GSK-J4 + Navitoclax; first compound 0.5 µM) | relative viability (GSK-J4 + Navitoclax; first compound 1.581 µM) | relative viability (GSK-J4 + Navitoclax; first compound 15.81 µM) | relative viability (GSK-J4 + Navitoclax; first compound 50 µM) | relative viability (GSK-J4 + Lapatinib; first compound 0.5 µM) | relative viability (GSK-J4 + Lapatinib; first compound 1.581 µM) | relative viability (GSK-J4 + Lapatinib; first compound 15.81 µM) | relative viability (GSK-J4 + Lapatinib; first compound 50 µM) | relative viability (AZ3146 + Luminespib; first compound 0.08 µM) | relative viability (AZ3146 + Luminespib; first compound 0.253 µM) | relative viability (AZ3146 + Luminespib; first compound 0.8 µM) | relative viability (AZ3146 + Luminespib; first compound 2.53 µM) | relative viability (AZ3146 + Luminespib; first compound 8 µM) | relative viability (GSK-J4 + Navitoclax; first compound 5 µM) | relative viability (GSK-J4 + Lapatinib; first compound 5 µM) |
| --- | --- | --- | --- | --- | --- | --- | --- | --- | --- | --- | --- | --- | --- | --- | --- | --- | --- | --- | --- | --- |
| NCI-H838 | 0.408 | 0.303 | 0.269 | 0.331 | 0.269 | 1.13 | 1.07 | 1.08 | 1.14 | 1.25 | 0.748 | 0.938 | 0.858 | 0.31 | 0.284 | 0.281 | 0.273 | 0.264 | – | – |
| NCI-H1651 | 0.335 | 0.387 | 0.422 | 0.35 | 0.251 | 0.999 | 0.942 | 1.05 | 0.958 | 0.84 | 0.779 | 0.863 | 0.839 | 0.966 | 0.881 | 0.984 | 0.761 | 0.779 | 1.03 | 0.814 |
| LOU-NH91 | 0.581 | 0.485 | 0.632 | 0.602 | 0.566 | 0.733 | 0.743 | 0.571 | 0.764 | 0.688 | 0.754 | 0.625 | 0.64 | 0.351 | 0.405 | 0.374 | 0.377 | 0.385 | 0.577 | 0.626 |
| NCI-H520 | 0.166 | 0.171 | 0.197 | 0.592 | 0.19 | 1.07 | 0.957 | 0.694 | 1.06 | 0.846 | 0.515 | 0.74 | 0.658 | 0.243 | 0.214 | 0.223 | 0.255 | 0.248 | 1.21 | 0.939 |
| H3255 | 0.258 | 0.242 | 0.339 | 0.374 | 0.405 | 0.474 | 0.494 | 0.368 | 0.444 | 0.238 | 0.255 | 0.206 | 0.493 | 0.841 | 0.801 | 0.841 | 0.911 | 0.866 | 0.543 | 0.271 |
